≈ marks a conversion by molar mass, not a printed value.
Experiments:
Escherichia coli = assay: Antibacterial activity against Escherichia coli after 24 hrs by MTT assay; format: functional
Pseudomonas fluorescens = assay: Antibacterial activity against Pseudomonas fluorescens after 24 hrs by MTT assay; format: functional
Bacillus subtilis = assay: Antibacterial activity against Bacillus subtilis after 24 hrs by MTT assay; format: functional
Staphylococcus aureus = assay: Antibacterial activity against Staphylococcus aureus after 24 hrs by MTT assay; format: functional
[1] = Inhibition of Escherichia coli FabH overexpressed in Escherichia coli DH10B cells by liquid scintillation counting

Row | MIC (Escherichia coli) | MIC (Pseudomonas fluorescens) | MIC (Bacillus subtilis) | MIC (Staphylococcus aureus) | IC50 [1] | SMILES
1 | 6.25 mg/L (≈ 15.8 µM) | 12.5 mg/L (≈ 31.7 µM) | 6.25 mg/L (≈ 15.8 µM) | 3.13 mg/L (≈ 7.93 µM) | 5.2 µM | CN1CCN(CCCOc2cc(O)c3c(=O)cc(-c4ccccc4)oc3c2)CC1
2 | > 50 mg/L | > 50 mg/L | > 50 mg/L | > 50 mg/L | – | NCCCNCCOc1cc(O)c2c(=O)cc(-c3ccccc3)oc2c1
3 | 12.5 mg/L (≈ 34.2 µM) | 12.5 mg/L (≈ 34.2 µM) | 25 mg/L (≈ 68.4 µM) | 12.5 mg/L (≈ 34.2 µM) | – | O=c1cc(-c2ccccc2)oc2cc(OCCN3CCCCC3)cc(O)c12
4 | > 50 mg/L | > 50 mg/L | > 50 mg/L | > 50 mg/L | – | CCCCN(CCCC)CCOc1cc(O)c2c(=O)cc(-c3ccccc3)oc2c1
5 | 1.56 mg/L (≈ 4.27 µM) | 6.25 mg/L (≈ 17.1 µM) | 6.25 mg/L (≈ 17.1 µM) | 3.13 mg/L (≈ 8.57 µM) | 3.1 µM | O=c1cc(-c2ccccc2)oc2cc(OCCCN3CCCC3)cc(O)c12
6 | 12.5 mg/L (≈ 34.1 µM) | 6.25 mg/L (≈ 17.1 µM) | 25 mg/L (≈ 68.2 µM) | 25 mg/L (≈ 68.2 µM) | 11.2 µM | O=c1cc(-c2ccccc2)oc2cc(OCCN3CCNCC3)cc(O)c12
7 | 12.5 mg/L (≈ 34 µM) | 12.5 mg/L (≈ 34 µM) | 25 mg/L (≈ 68 µM) | 12.5 mg/L (≈ 34 µM) | – | CCCCNCCCOc1cc(O)c2c(=O)cc(-c3ccccc3)oc2c1
8 | > 50 mg/L | > 50 mg/L | > 50 mg/L | > 50 mg/L | – | CCCCN(CCCC)CCCOc1cc(O)c2c(=O)cc(-c3ccccc3)oc2c1
9 | > 50 mg/L | > 50 mg/L | > 50 mg/L | > 50 mg/L | – | CCN(CC)CCCOc1cc(O)c2c(=O)cc(-c3ccccc3)oc2c1
10 | 12.5 mg/L (≈ 35.4 µM) | 12.5 mg/L (≈ 35.4 µM) | 25 mg/L (≈ 70.7 µM) | 12.5 mg/L (≈ 35.4 µM) | – | CCCNCCCOc1cc(O)c2c(=O)cc(-c3ccccc3)oc2c1
11 | 6.25 mg/L (≈ 17.6 µM) | 12.5 mg/L (≈ 35.2 µM) | 12.5 mg/L (≈ 35.2 µM) | 25 mg/L (≈ 70.3 µM) | – | O=c1cc(-c2ccccc2)oc2cc(OCCCNCCO)cc(O)c12
12 | 6.25 mg/L (≈ 17.8 µM) | 12.5 mg/L (≈ 35.6 µM) | 25 mg/L (≈ 71.1 µM) | 25 mg/L (≈ 71.1 µM) | – | O=c1cc(-c2ccccc2)oc2cc(OCCN3CCCC3)cc(O)c12
13 | 25 mg/L (≈ 63.2 µM) | 25 mg/L (≈ 63.2 µM) | 25 mg/L (≈ 63.2 µM) | > 50 mg/L | – | CCCN(CCC)CCCOc1cc(O)c2c(=O)cc(-c3ccccc3)oc2c1
14 | 25 mg/L (≈ 73.7 µM) | 25 mg/L (≈ 73.7 µM) | 50 mg/L (≈ 147 µM) | 50 mg/L (≈ 147 µM) | 54 µM | CCCNCCOc1cc(O)c2c(=O)cc(-c3ccccc3)oc2c1
15 | 3.13 mg/L (≈ 8.23 µM) | 12.5 mg/L (≈ 32.9 µM) | 12.5 mg/L (≈ 32.9 µM) | 6.25 mg/L (≈ 16.4 µM) | 6.6 µM | O=c1cc(-c2ccccc2)oc2cc(OCCCN3CCNCC3)cc(O)c12
16 | 12.5 mg/L (≈ 32.9 µM) | 25 mg/L (≈ 65.7 µM) | 50 mg/L (≈ 131 µM) | 25 mg/L (≈ 65.7 µM) | – | CN1CCN(CCOc2cc(O)c3c(=O)cc(-c4ccccc4)oc3c2)CC1
17 | > 50 mg/L | > 50 mg/L | > 50 mg/L | > 50 mg/L | – | CCCN(CCC)CCOc1cc(O)c2c(=O)cc(-c3ccccc3)oc2c1
18 | > 50 mg/L | > 50 mg/L | > 50 mg/L | > 50 mg/L | 70 µM | CCN(CC)CCOc1cc(O)c2c(=O)cc(-c3ccccc3)oc2c1
19 | 3.13 mg/L (≈ 6.47 µM) | 3.13 mg/L (≈ 6.47 µM) | 1.56 mg/L (≈ 3.23 µM) | 1.56 mg/L (≈ 3.23 µM) | – | NC[C@H]1O[C@H](O[C@H]2[C@H](O)[C@@H](O[C@H]3O[C@H](CO)[C@@H](O)[C@H](N)[C@H]3O)[C@H](N)C[C@@H]2N)[C@H](N)[C@@H](O)[C@@H]1O [BEKANAMYCIN]
20 | > 50 mg/L | > 50 mg/L | > 50 mg/L | > 50 mg/L | – | O=c1cc(-c2ccccc2)oc2cc(O)cc(O)c12 [CHRYSIN]

— ChEMBL document CHEMBL1152526, “Synthesis of C(7) modified chrysin derivatives designing to inhibit beta-ketoacyl-acyl carrier protein synthase III (FabH) as antibiotics” (Bioorg Med Chem, 2009)
